In PMC5670239, “Structural basis for mutually exclusive co-transcriptional nuclear cap-binding complexes with either NELF-E or ARS2” (Nature Communications, 2017):

Key:
[1] = molecular target: T1, CBC (Homo sapiens, UniProt P52298); assay: ITC, binding to CBC without cap analogue; details: ITC (MicroCal ITC200), 25 °C, 20 mM HEPES, 120 mM NaCl, 2 mM TCEP, pH 7.8, single-site fit, no cap analogue pre-bound, mean ± SD of at least two independent experiments
T1 sequence (P52298 1-156): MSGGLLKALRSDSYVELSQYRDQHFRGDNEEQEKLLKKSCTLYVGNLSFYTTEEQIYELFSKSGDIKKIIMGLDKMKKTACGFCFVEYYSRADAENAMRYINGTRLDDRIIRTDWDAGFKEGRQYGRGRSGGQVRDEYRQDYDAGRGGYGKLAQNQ
T1 sequence (Q09161 20-790 partner): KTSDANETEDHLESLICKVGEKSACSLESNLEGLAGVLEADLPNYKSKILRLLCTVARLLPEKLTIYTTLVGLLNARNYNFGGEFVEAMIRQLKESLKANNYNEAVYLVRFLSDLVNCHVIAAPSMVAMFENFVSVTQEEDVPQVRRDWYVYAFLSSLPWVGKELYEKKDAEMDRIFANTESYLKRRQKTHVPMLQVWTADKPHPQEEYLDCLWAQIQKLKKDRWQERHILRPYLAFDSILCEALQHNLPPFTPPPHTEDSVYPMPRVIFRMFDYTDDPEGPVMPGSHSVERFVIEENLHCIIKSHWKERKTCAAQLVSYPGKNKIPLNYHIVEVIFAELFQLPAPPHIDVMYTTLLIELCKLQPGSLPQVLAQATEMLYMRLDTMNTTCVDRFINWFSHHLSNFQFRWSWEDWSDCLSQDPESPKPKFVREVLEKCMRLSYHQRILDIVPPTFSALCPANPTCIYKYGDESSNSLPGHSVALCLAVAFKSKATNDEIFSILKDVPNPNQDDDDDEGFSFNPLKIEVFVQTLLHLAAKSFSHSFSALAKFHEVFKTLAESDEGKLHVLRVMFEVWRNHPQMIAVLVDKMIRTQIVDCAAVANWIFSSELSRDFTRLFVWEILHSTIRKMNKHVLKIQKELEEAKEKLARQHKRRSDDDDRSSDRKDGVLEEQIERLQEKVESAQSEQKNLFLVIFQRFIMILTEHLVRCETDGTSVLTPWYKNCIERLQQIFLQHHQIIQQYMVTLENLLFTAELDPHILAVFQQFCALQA
Source text: hARS2 isoform-4 (871 residues, UniProt:Q9BXP5-4, also known as isoform-e, NP_001122326) constructs (residues 147–871, 147–845, 763–871, 763–845, 827–871) hNELF-E (NM_002904.5) (244–380, 244–360) and hPHAX (NM_032177.3) (1–394, 103–294, 103–308, 103–327) were cloned into pETM11 (EMBL). Full-length hNELF-E (1–380) was cloned into pFASTBac and CBP20 into pETM30. Primers used are given in Supplementary Table 2. All constructs were expressed in E. coli Rosetta 2 (Novagen), except full-length NELF-E and CBP80ΔNLS (CBP80 with residues 1–19 deleted[2]), which were expressed in High Five insect cells (Life Technology). Cells were harvested and lysed by sonication in lysis buffer containing 50 mM HEPES, pH 7.8, 300 mM NaCl, 10% (v/v) glycerol, 5 mM β-mercaptoethanol. Lysates were clarified by centrifugation and applied on an equilibrated Ni-sepharose column (GE Healthcare), washed with 20 mM imidazole in lysis buffer, and eluted with 300 mM imidazole in lysis buffer. While dialysing into 20 mM HEPES, pH 7.8, 120 mM NaCl, 10% (v/v) glycerol, 5 mM β-mercaptoethanol, the N-terminal 6-histidine-tag was cleaved with His-tagged Tobacco Etch Virus (TEV) protease overnight in a ratio 1:100 mg TEV per mg protein. The cleaved protein was further purified first on Ni-sepharose to remove TEV and then using an anion exchange column (HiTrap Q, GE Healthcare) followed if necessary by a Heparin column (GE Healthcare). In both cases a NaCl gradient from 50 to 800 mM in 20 mM HEPES 7.8, 0.5 mM tris(2-carboxyethyl)phosphine was used. To reconstitute the CBC heterodimer, cleared His-tagged CBP20 lysate was first immobilised on a Ni-sepharose column. After washing the column with lysis buffer, the cleared CBP80 lysate was applied to the column and further purification steps performed as described above. To remove the access of CBP20 the flow through of the Ni-column after TEV cleavage was loaded on an anion exchange column (HiTrap Q, GE Healthcare) and CBC eluted by a NaCl gradient as described above. In the text we refer to CBP80ΔNLS and CBP80ΔNLS-CBP20 as CBP80 and CBC, respectively. […]

[2] = molecular target: T2, CBC-ARS2 827–871 (Homo sapiens, UniProt P52298); assay: ITC, m^7GTP titrated to CBC saturated with ARS2 827–871; type: binding
T2 sequence (P52298 1-156): T1 sequence (P52298 1-156)
T2 sequence (Q09161 20-790 partner): T1 sequence (Q09161 20-790 partner)
T2 sequence (Q9BXP5 832-876 partner): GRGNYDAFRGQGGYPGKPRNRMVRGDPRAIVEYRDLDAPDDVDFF
Source text: Supplementary Figure 7. Influence of ARS2 and NELF-E on m7GTP binding to CBC.
Representative isothermal titration calorimetry data, presented as in the caption to Figure 1C,
allowing determination of the affinity of CBC to m7GTP in the absence (left) or in the
presence of bound ARS2827-871 (middle) or NELF-E244-380 (right). CBC or CBC saturated
with 2.2 molar excess of ARS2827-871 or NELF-E244-380 in the sample cell was titrated by
m7GTP. KD values represent the average from at least two independent experiments (see […]

SMILES: C[n+]1cn([C@@H]2O[C@H](COP(=O)(O)OP(=O)([O-])OP(=O)(O)O)[C@@H](O)[C@H]2O)c2nc(N)[nH]c(=O)c21 [m^7GTP]
- Kd [1]: 100 nM
- Kd ([1]; SD): 126 ± 45 nM
- Kd ([2]; 25 °C, pH 7.8, CBC saturated with 2.2 molar excess of ARS2 827–871, titrated by m^7GTP, mean ± SD of 2 experiments, SD): 18 ± 1 nM
- Increase of the affinity of CBC for cap (m^7GTP) by saturating ARS2 ([2]; compared to m^7GTP binding to CBC alone): ~ 7 factor
